# Reference: ChEMBL document CHEMBL4680277, “Targeting Metabolism of Extracellular Nucleotides via Inhibition of Ectonucleotidases CD73 and CD39” (J Med Chem, 2020)
# Key:
# 5'-nucleotidase [1] = target: T1, 5'-nucleotidase (Homo sapiens, UniProt P21589); assay: Inhibition of human C-terminal 6His-tagged CD73 (1 to 547 residues) expressed in HEK293F cells using 2 uM AMP as substrate by rapidfire mass spectrometry assay
# [2] = Half-life in human at 25 mg, iv infusion dosed once every 2 weeks; type: ADME, organism-based; conditions: in vivo
# [3] = Inhibition of human FLAG-tagged CD73 Thr376Ala mutant (1 to 552 residues) assessed as reduction in adenosine formation using AMP as substrate preincubated for 10 mins followed by substrate addition and measured after 30 mins by rapidfire mass spectrometry assay
# 5'-nucleotidase [4] = target: T1, 5'-nucleotidase; assay: Inhibition of human C-terminal 6His-tagged CD73 ( Trp27 to Lys547 residues) expressed in CHO cells using CMP as substrate incubated for 20 mins by malachite Green assay
# [5] = target: T2, Ectonucleoside triphosphate diphosphohydrolase 1 (Homo sapiens, UniProt P49961); assay: Inhibition of human CD39 using ATP as substrate preincubated for 3 mins followed by substrate addition and measured after 10 to 15 mins by Cheng-Prusoff analysis; conditions: read-out: Ki(app)
# T2 sequence (P49961 whole entry): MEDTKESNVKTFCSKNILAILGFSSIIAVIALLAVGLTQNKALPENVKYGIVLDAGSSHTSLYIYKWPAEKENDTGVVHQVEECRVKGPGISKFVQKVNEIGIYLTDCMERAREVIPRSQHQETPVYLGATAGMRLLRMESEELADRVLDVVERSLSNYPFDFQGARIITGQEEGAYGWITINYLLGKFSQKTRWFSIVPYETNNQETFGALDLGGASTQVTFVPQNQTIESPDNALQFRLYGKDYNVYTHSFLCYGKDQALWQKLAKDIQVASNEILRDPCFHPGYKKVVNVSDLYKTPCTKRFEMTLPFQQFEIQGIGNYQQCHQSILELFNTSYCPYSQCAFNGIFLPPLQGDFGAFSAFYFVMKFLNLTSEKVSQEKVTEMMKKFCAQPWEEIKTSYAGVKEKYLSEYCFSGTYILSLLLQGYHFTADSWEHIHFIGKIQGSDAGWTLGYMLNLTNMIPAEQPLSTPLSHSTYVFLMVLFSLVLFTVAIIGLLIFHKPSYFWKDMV
# [6] = target: T2, Ectonucleoside triphosphate diphosphohydrolase 1; assay: Inhibition of human CD39 using ATP as substrate preincubated for 3 mins followed by substrate addition and measured after 10 to 15 mins by Malachite green reagent based assay
# [7] = target: T3, Ectonucleoside triphosphate diphosphohydrolase 1 (Rattus norvegicus, UniProt P97687); assay: Inhibition of rat CD39 expressed in CHO cells using ATP as substrate incubated for 10 mins by UV absorbance method; type: cell-based; conditions: cho
# T3 sequence (P97687 whole entry): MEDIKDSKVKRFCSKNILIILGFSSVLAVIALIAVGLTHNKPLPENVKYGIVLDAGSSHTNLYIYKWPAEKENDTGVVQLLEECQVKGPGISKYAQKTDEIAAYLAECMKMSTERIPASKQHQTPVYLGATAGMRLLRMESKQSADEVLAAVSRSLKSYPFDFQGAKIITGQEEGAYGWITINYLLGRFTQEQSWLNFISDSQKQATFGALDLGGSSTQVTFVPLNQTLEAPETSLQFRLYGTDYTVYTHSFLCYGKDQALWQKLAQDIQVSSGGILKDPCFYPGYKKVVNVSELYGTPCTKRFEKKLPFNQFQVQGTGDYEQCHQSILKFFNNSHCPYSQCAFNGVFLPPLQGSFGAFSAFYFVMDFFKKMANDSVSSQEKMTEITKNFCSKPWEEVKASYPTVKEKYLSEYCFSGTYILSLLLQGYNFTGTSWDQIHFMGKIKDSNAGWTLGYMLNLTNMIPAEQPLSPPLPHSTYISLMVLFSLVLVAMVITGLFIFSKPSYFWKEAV
# [8] = target: T4, Ectonucleoside triphosphate diphosphohydrolase 2 (Rattus norvegicus, UniProt O35795); assay: Inhibition of rat NTPDase2 expressed in CHO cells using ATP as substrate incubated for 10 mins by UV absorbance method; type: cell-based; conditions: cho
# T4 sequence (O35795 whole entry): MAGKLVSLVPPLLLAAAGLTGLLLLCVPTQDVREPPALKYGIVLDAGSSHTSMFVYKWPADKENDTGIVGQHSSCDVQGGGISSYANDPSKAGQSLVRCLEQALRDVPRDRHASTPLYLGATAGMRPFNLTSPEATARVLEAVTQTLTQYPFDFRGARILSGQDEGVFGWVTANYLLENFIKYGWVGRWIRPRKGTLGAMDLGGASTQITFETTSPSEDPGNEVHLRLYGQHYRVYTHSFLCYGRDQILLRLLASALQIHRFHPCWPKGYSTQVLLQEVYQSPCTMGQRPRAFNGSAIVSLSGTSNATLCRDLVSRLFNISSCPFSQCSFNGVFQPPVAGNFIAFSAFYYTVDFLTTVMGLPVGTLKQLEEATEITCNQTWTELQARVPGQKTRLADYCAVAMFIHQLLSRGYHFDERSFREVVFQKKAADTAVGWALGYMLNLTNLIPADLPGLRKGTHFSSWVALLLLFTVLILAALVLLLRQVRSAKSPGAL
# [9] = Inhibition of rat NTPDase3 expressed in CHO cells using ATP as substrate incubated for 10 mins by UV absorbance method; type: cell-based
# T1 sequence (P21589 whole entry, the tested form may be a part): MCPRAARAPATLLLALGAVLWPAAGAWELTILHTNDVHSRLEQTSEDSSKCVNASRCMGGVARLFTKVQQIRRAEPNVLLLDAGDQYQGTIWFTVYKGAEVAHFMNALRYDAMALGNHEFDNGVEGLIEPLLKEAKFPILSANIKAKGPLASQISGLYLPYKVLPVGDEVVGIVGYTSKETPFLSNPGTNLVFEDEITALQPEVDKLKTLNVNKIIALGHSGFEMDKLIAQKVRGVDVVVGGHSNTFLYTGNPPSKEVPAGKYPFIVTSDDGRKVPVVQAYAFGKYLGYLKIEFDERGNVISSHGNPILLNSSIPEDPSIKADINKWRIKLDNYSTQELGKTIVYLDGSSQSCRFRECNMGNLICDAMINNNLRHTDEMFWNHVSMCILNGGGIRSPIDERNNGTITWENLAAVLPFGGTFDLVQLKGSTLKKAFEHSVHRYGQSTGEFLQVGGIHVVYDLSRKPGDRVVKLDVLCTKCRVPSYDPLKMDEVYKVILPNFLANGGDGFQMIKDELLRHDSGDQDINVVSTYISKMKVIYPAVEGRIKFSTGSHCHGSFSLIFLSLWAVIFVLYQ
smiles,measurement,setting,value
CC(F)(F)[C@H]1C[C@@H]1c1cc(-c2c[nH]c(=O)[nH]c2=O)nnc1Cl,IC50,5'-nucleotidase [1],< 62 nM
C[C@H](Nc1cc(Cl)nc2c1cnn2[C@@H]1O[C@H](COP(=O)(O)CP(=O)(O)O)[C@@H](O)[C@H]1O)c1ccccc1F,half-life,[2],74 h
O=c1[nH]cc(-c2cc(C3CCC3)c(Cl)nn2)c(=O)[nH]1,IC50,5'-nucleotidase [1],< 62 nM
NC(=O)c1cc2c(c(Cl)c1O)NCCOCCCCCc1cc(cc3[nH]ccc13)NS2(=O)=O,IC50,[3],4 nM
N#Cc1nnc(-c2c[nH]c(=O)[nH]c2=O)cc1[C@@H]1CC1(F)F,IC50,5'-nucleotidase [1],< 62 nM
CC[C@H]1C[C@@H]1c1cc(-c2c[nH]c(=O)[nH]c2=O)nnc1C,IC50,5'-nucleotidase [1],< 62 nM
O=c1[nH]cc(-c2cc([C@H]3CC3(F)F)c(Cl)nn2)c(=O)[nH]1,IC50,5'-nucleotidase [1],< 62 nM
CCOC(=O)C(OC[C@H]1C[C@@H](n2nnc3c(NC[C@@H]4CCOC4)nc(Cl)nc32)[C@H](O)[C@@H]1O)P(=O)(O)O (stereo partly drawn),IC50,5'-nucleotidase [4],< 100 nM
Cc1nnc(-c2c[nH]c(=O)[nH]c2=O)cc1[C@H]1C[C@@H]1CCF,IC50,5'-nucleotidase [1],< 62 nM
Cc1nnc(-c2c[nH]c(=O)[nH]c2=O)cc1[C@H]1C[C@@H]1C(C)(F)F,IC50,5'-nucleotidase [1],< 62 nM
CCCCSc1nc2c(N)ncnc2n1[C@@H]1O[C@H](COP(=O)(O)OP(=O)(O)OP(=O)(O)O)[C@@H](O)[C@H]1O,Ki,[5],800 nM
same,IC50,[6],5600 nM
CC(C)[C@H]1C[C@@H]1c1cc(-c2c[nH]c(=O)[nH]c2=O)nnc1Cl,IC50,5'-nucleotidase [1],< 62 nM
COc1nnc(-c2c[nH]c(=O)[nH]c2=O)cc1C1CCC1,IC50,5'-nucleotidase [1],< 62 nM
Nc1c(S(=O)(=O)O)cc(Nc2ccc(Cl)cc2)c2c1C(=O)c1ccccc1C2=O,Ki,[7],15700 nM
same,Ki,[8],18000 nM
same,Ki,[9],16400 nM
Cc1nnc(-c2c[nH]c(=O)[nH]c2=O)cc1[C@H]1C[C@@H]1CC(C)C,IC50,5'-nucleotidase [1],< 62 nM
CC(C)[C@H]1C[C@@H]1c1cc(-c2c[nH]c(=O)[nH]c2=O)nnc1C#N,IC50,5'-nucleotidase [1],< 62 nM
O=c1[nH]cc(-c2cc(C3CCCC3)c(Cl)nn2)c(=O)[nH]1,IC50,5'-nucleotidase [1],< 62 nM
CC[C@H]1C[C@@H]1c1cc(-c2c[nH]c(=O)[nH]c2=O)nnc1C#N,IC50,5'-nucleotidase [1],< 62 nM
COc1nnc(-c2c[nH]c(=O)[nH]c2=O)cc1C1CC(C)(C)C1,IC50,5'-nucleotidase [1],< 62 nM
N#Cc1nnc(-c2c[nH]c(=O)[nH]c2=O)cc1C1CCC1,IC50,5'-nucleotidase [1],< 62 nM
